pIC50: −log10 of the molar value.
Legend:
[1] = Inhibition of acetylcholine-induced calcium flux in calcium 4 reagent loaded bovine chromaffin cells at 1 to 100 uM; assay type: functional; settings: Bos taurus
[2] = Inhibition of acetylcholine-induced catecholamine secretion in bovine chromaffin cells after 10 mins by HPLC coupled electrochemical detector; assay type: functional, cell-based; settings: Bos taurus

pIC50 [1]: 4.22
pIC50 [2]: 4.02
SMILES: COC(=O)[C@]12C[C@@H](OC(=O)/C=C/c3ccc(O)c(OC)c3)[C@@H](O)[C@H](O1)[C@@H](COC(=O)/C=C/c1ccc(O)c(O)c1)O2 (relative stereo)
